Each structure is given as a SMILES string.

In data set [1] the test system is NS5B chimeric replicon of clinical isolate 1a—6 in Huh7-cure cells. Nature of the data set: Transient replicon assay, chimeric replicon of clinical isolate 1a—6 (CI2). The data set is classed as cell-based, HCV genotype 1a. Conditions: Hepatitis C virus, 48 h, read-out: EC50-T CI2.
Data set [2] deals with wild type replicon of genotype 1b (con1b) in Huh7-cure cells. The data set can be described thus: Transient replicon assay, wild type replicon of genotype 1b (Con1b). It counts as cell-based, HCV genotype 1b. The conditions noted are these: Hepatitis C virus, transient wild type replicon genotype 1b, 48 h, luciferase, read-out: EC50-T Con1b.
The nature of data set [3]: Pharmacokinetic analysis after single oral administration. The conditions noted are these: male Sprague-Dawley rats, single oral dose 10 mg/kg, 7 h post dosing; for Kp at 7 h: rat, liver/plasma, read-out: Lever/plasma ratio. It counts as in vivo. As to the method: Three male Sprague-Dawley rats were given a single oral dose of 10 mg/kg of the studied compounds. The compounds were administered by gavage as a solution in PEG400/2% Vitamine E Tocopherol polyethyleneglycol succinate (Vitamin E-TPGS). 7 hours after administration, the animals were sacrificed and plasma and liver samples taken. The samples were analyzed using a qualified research LC-MS/MS method to determine the concentration of the compound in the liver and the liver-to-plasma ratio at 7 h post dosing.

Data set [4] has as its system NS5B chimeric replicon of clinical isolate 1a_H77 in Huh7-cure cells. The data set can be described thus: Transient replicon assay, chimeric replicon of clinical isolate 1a_H77 (CI1). The data set is classed as cell-based, HCV genotype 1a. The conditions noted are these: Hepatitis C virus, 48 h, read-out: EC50-T CI1. For orientation: Replicon systems follow genome replication, usually without infectious particles.

The target in data set [5] is T1, HCV NS5B polymerase (NS5BΔC21) (Hepatitis C virus genotype 1b, UniProt Q9WMX2).
T1 construct: NS5B (genotype 1b consensus strain Con1) lacking 21 C-terminal residues; made in house; host or cells: E. coli Rosetta 2 (DE3)
The data set can be described thus: RNA-dependent RNA polymerase assay (enzyme inhibition assay). The data set is classed as biochemical, HCV (genotype 1b consensus strain Con1). From the text:
The coding sequence for NS5B (genotype 1b consensus strain Con1) lacking 21 C-terminal residues was amplified from plasmid pFKI389/ns3-3′ (Genbank accession no. AJ242654), plasmid pCV-H77C (Genbank accession no. AF 011751.1) and subcloned into the pET21b plasmid as described previously (Pauwels et al. J. Virol., 2007). The NS5BΔC21 expression constructs were transformed into E. coli Rosetta 2 (DE3) (Novagen, Madison, Wis.). One hundred milliliters of LB-medium supplemented with carbenicillin (50 μg/mL) and chloramphenicol (34 μg/mL) was inoculated with one colony, grown overnight, and transferred to fresh LB-medium supplemented with 3% ethanol, carbenicillin and chloramphenicol, at a ratio of 1:200. Cells were grown to an optical density at 600 nm of 0.6, after which the expression cultures were shifted to a growth temperature of 20° C. following induction with ispopropyl-1-thio-β-D-galactopyranoside and MgCl2 at a final concentration of 0.4 mM and 10 μM, respectively. After 18 h of induction, cells were harvested by centrifugation and resuspended in 20 mM Tris-HCl, pH 7.5, 300 mM NaCl, 10% glycerol, 0.1% NP40, 4 mM MgCl2, 5 mM DTT supplemented with EDTA-free Complete Protease Inhibitor (Roche, Basel, Switzerland). Cell suspensions were disrupted by sonication and incubated with 10-15 mg/L of DNase I (Roche, Basel, Switzerland) for 30 min. Cell debris was removed through ultracentrifugation at 30,000×g for 1 hour and clarified cell lysate was flash frozen and stored at −80° C. prior to purification.
Clarified cell lysate was thawed and subsequently loaded onto a 5 mL pre-packed HisTrap FF column equilibrated with 25 mM HEPES, pH 7.5, 500 mM NaCl, 10% glycerol and 5 mM DTT. Proteins were eluted with 500 mM imidazole at a flow rate of 1 mL/min. Fractions containing the protein of interest were applied onto a pre-packed 26/10 HiPrep Desalting Column equilibrated with 25 mM HEPES, pH 7.5, 250 mM NaCl, 10% glycerol and 5 mM DTT. The buffer-exchanged NS5B peak was then applied onto a 6 ml Resource S column. Protein was eluted with an increasing salt gradient and fractions collected. Protein purity was assessed on Nu-PAGE pre-cast gels (Invitrogen, Carlsbad, Calif.). Purified NS5B samples were concentrated using Centri-Prep concentrators (Millipore, Billerica, Mass., USA) and protein concentrations were determined by spectrofotometry with the Nanodrop (Nanodrop Technologies, Wilmington, Del., USA).
Measurement of HCV NS5B polymerization activity was performed by evaluating the amount of radio labeled GTP incorporated by the enzyme in a newly synthesized RNA using […] RNA template/primer. The RdRp assay was carried out in 384-well plates. 2.5 nM of purified NS5B enzyme was pre-incubated for 10 min with 150 nM 5′-biotinylated oligo(rG13) primer, 15 nM poly(rC) template, in 18 mM Tris-HCl, pH 7.5, 5 mM MgCl2, 20.5 mM KCl, 17 mM NaCl and 2.5 mM of DTT. The test compounds were the added to the preformed polymerase-template complex, and incubated at room temperature for 15 min before the addition 600 nM of GTP, and 0.13 μCi of [^3H]GTP. 30 μL reaction mixture was incubated at room temperature for 2 h before stopping the reaction by adding 30 μL of streptavidin coated SPA-beads (GE Healthcare, Uppsala, Sweden) in 0.5 M EDTA. […] IC50 values represent the concentration of compound required to decrease by 50% the amount of RNA produced which is measured by the detection of incorporated radiolabeled GTP.

Data set [6] concerns the target T2, NS5B wild-type enzyme genotype 4a (UniProt O39929).
T2 construct: fused on or other part: His6 tag
The data set can be described thus: Enzyme binding assay (SPR, Biacore), genotype 4a. On the set-up: species or system HCV genotype 4a. The conditions noted are these: for Kd: Kd=koff/kon; for koff / kon: SPR, 25° C.; for t1/2 (dissociative half-life): t1/2=ln(2)/koff. As to the method: (§1) The compounds of formula (I) were examined for their enzymatic binding kinetics or affinity using a Surface Plasmon Resonance (SPR)-based method, i.e. Biacore. A slow dissociation of the inhibiting compound from its viral target (low koff, low Kd) is believed to potentially reduce the development of drug resistance against anti-viral drugs (Dierynck et al. 2007. Journal of Virology, vol. 81, No. 24, 13845-13851). All measurements were performed on a Biacore T100 instrument (GE Healthcare). The purified HIS6-tagged NS5BΔC21 polymerases were immobilized using non-covalent capturing to an NTA sensor chip (GE Healthcare) in immobilization buffer (20 mM MOPS pH 7.4, 500 mM NaCl, 0.005% Tween-P20, 1 mM DTT, 50 μM EDTA). Interaction studies were all performed at 25° C. Inhibitors were serially diluted in running buffer (20 mM Tris-HCl pH 7.4, 150 mM NaCl, 50 μM EDTA, 1 mM DTT, 0.005% Tween-P20) containing 5% dimethyl sulfoxide (DMSO). Single-cycle kinetics were used, in which 5 increasing concentrations of compound were injected for a period of 300 s each in 1 single cycle, and dissociation was monitored for a period of 1200 s. The sensor surface was completely regenerated in between the cycles. Data were analyzed using simultaneous nonlinear regression analysis (global fitting) adapted for single-cycle kinetics with Biacore T100 BiaEval evaluation software 2.0 (GE Healthcare). The individual rate constants kon and koff and a derived affinity constant, Kd=koff/kon, were determined by a kinetic evaluation of the sensorgrams. The kinetic models accounted for bulk and limited mass transport effects. Every analysis was performed at least in two independent experiments. The dissociation rate of a kinetic interaction can be translated into a compound residence time (dissociative half-life t1/2=ln(2)/koff) representative for the interaction time between the polymerase and its inhibitor.
(§2) The observed association rate constants (kon), dissociation rate constants (koff), derived affinity constant (Kd) and dissociative half-life (t1/2) measured for compounds of formula (I) or subgroups thereof on NS5B wild-type enzyme genotypes 1a, 1b and 4a are given in Table 2.

For data set [7], the target named is T3, NS5B wild-type enzyme genotype 1b (Hepatitis C virus genotype 1b, UniProt Q9WMX2).
T3 construct: NS5B (genotype 1b consensus strain Con1) lacking 21 C-terminal residues; made in house; host or cells: E. coli Rosetta 2 (DE3)
Nature of the data set: Enzyme binding assay (SPR, Biacore), genotype 1b. The conditions noted are these: for koff / kon / t1/2 (dissociative half-life): genotype 1b; for koff / kon: SPR, 25° C.; for t1/2 (dissociative half-life): t1/2=ln(2)/koff. As to the method: as §1, §2
Background: Surface plasmon resonance follows binding to a sensor surface in real time, without labels.

The target in data set [8] is T4, NS5B wild-type enzyme genotype 1a (Hepatitis C virus genotype 1a, UniProt P27958).
T4 construct: The purified HIS6-tagged NS5BΔC21 polymerases were immobilized; made in house; host or cells: E. coli Rosetta 2 (DE3)
T4 sequence (P27958 2421-2990): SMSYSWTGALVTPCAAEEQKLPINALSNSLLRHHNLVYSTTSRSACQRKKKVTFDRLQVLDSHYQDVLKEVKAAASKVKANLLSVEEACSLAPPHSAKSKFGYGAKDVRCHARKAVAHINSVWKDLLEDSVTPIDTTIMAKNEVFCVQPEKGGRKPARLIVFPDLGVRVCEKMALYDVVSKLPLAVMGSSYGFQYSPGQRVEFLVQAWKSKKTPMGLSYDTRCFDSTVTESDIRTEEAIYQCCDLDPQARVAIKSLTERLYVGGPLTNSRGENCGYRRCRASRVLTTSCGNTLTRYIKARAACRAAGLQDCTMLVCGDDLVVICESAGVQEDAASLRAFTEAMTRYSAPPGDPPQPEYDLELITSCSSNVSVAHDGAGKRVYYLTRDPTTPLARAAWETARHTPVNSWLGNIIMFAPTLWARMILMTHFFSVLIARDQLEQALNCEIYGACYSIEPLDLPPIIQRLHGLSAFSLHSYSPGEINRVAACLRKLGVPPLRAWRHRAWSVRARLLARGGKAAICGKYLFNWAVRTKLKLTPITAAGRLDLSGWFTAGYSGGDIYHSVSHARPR
Nature of the data set: Enzyme binding assay (SPR, Biacore), genotype 1a. Conditions: for kon / t1/2 (dissociative half-life): genotype 1a; for kon: SPR, 25° C.; for t1/2 (dissociative half-life): t1/2=ln(2)/koff. Also on record: species or system HCV genotype 1a. As to the method: as §1, §2

On to `CN1CCOCCN(C)S(=O)(=O)NC(=O)c2ccc3c(C4CCCCC4)c(n(C)c3c2)-c2ccccc2OCC1=O` [Compound 10, 25-cyclohexyl-4,10,19-trimethyl-5,6,9,10-tetrahydro-2H,8H-14,18:17,20-di(metheno)-1,7,11,4,10,12,19-benzodioxathiatetraazacyclodocosine-3,13 (4H,12H,19H)-dione 11,11-dioxide], for which the EC50 came out at 88 nM in data set [1], 75 nM in data set [2] and 121 nM in data set [4]. Moreover, the “Concentration Liver” value in data set [3] was determined as 1717 ng/g. The Kp at 7 h in data set [3] was determined as 64. Further, in data set [5], 161 nM corresponded to half-maximal inhibition (IC50).

For `CN1CCCCN(C)S(=O)(=O)NC(=O)c2ccc3c(C4CCCCC4)c(n(C)c3c2)-c2ccccc2OCC1=O` [Compound 15, 24-cyclohexyl-4,9,18-trimethyl-4,5,6,7,8,9-hexahydro-13,17:16,19-di(metheno)-1,10,4,9,11,18-benzoxathiatetraazacyclohenicosine-3,12(2H,11H,18H)-dione 10,10-dioxide], the 50% effective concentration (EC50) in data set [1] came to 99 nM; in data set [2], 169 nM; in data set [4] it was 102 nM. Further, the “Concentration Liver” value in data set [3] was determined as 1524 ng/g. For the same molecule, the Kp at 7 h in data set [3] was 99. Moreover, inhibition in data set [5] was half-maximal at 124 nM (IC50).

Consider `CN1CCCCNC(=O)COc2ccccc2-c2c(C3CCCCC3)c3ccc(cc3n2C)C(=O)NS1(=O)=O` [Compound 32, 24-cyclohexyl-9,18-dimethyl-4,5,6,7,8,9-hexahydro-13,17:16,19-di(metheno)-1,10,4,9,11,18-benzoxathiatetraazacyclohenicosine-3,12(2H,11H,18H)-dione 10,10-dioxide], for which the EC50 in data set [1] turned out to be 2950 nM; in data set [2] it was 3610 nM; in data set [4] it was 1600 nM. Moreover, the Kd in data set [6] is 450 nM; in data set [7], 1200 nM; in data set [8], 3300 nM. The koff in data set [6] is 0.0087 s⁻¹; in data set [7], 0.015 s⁻¹; in data set [8], 0.0089 s⁻¹. Moreover, the kon in data set [6] was 1.9E+04 1/MS; in data set [7] it was 1.3E+04 1/MS; in data set [8], 3.0E+03 1/MS. Moreover, the “t1/2 (dissociative half-life)” value in data set [6] turned out to be 1.33 min; in data set [7], 0.783 min; in data set [8] it was 1.3 min. The same molecule gave an IC50 in data set [5] of 1820 nM.

As to `CN1CCCCCNC(=O)COc2cc(F)ccc2-c2c(C3CCCCC3)c3ccc(cc3n2C)C(=O)NS1(=O)=O` [Compound 50, 25-cyclohexyl-23-fluoro-10,19-dimethyl-5,6,7,8,9,10-hexahydro-2H-14,18:17,20-di(metheno)-1,11,4,10,12,19-benzoxathiatetraazacyclodocosine-3,13(4H,12H,19H)-dione 11,11-dioxide], the values for the EC50 in data set [1], in data set [2] and in data set [4] were 156 nM, 254 nM and 117 nM, respectively. Also, the dissociation constant Kd in data set [6] came out at 9.1 nM; in data set [7], 25 nM; in data set [8] it was 40 nM. Moreover, the koff is 0.002 s⁻¹ in data set [6], 0.0006 s⁻¹ in data set [7] and 0.0067 s⁻¹ in data set [8]. Also, the kon in data set [6] is on record as 2.2E+05 1/MS; in data set [7] it was 2.3E+04 1/MS; in data set [8] it was 1.7E+05 1/MS. Further, the “t1/2 (dissociative half-life)” value in data set [6] stood at 5.72 min; in data set [7] it was 19.38 min; in data set [8], 1.72 min. Moreover, the IC50 in data set [5] turned out to be 109 nM.

The EC50 is the midpoint of the concentration-response curve. Usually IC50 stands for the concentration needed to halve the response being measured. Low values mean greater potency in that assay, high ones weaker potency in that assay. One may read the Kd as a measure of binding affinity in units of concentration. Read a high Kd as a looser complex. As usually defined, the koff is the first-order rate constant of dissociation. Read a high koff as fast dissociation.

(Values after patent US8357687B2, “Macrocyclic indole derivatives useful as hepatitis C virus inhibitors” (priority 2008, dated 2013).)
